{"source": "patent US20040014215A1", "about": "“Synchronised arabidopsis cell suspensions and uses thereof” (priority 2000, published 2004)", "test_system": "Arabidopsis cell suspension culture MM1", "assay": "Aphidicolin (4.16 μg/ml, 21.5 hrs) block/release of MM1: proportion of G1, S and G2 cells by flow cytometry", "type": "cell-based, Arabidopsis thaliana", "procedure": "Arabidopsis cell suspension culture MM1 (DSM 13563) was used for synchronisation experiments. The suspension culture was maintained by sub-culturing weekly 10 ml into 200 ml of fresh MSS-medium (MS-salt, 3% sucrose, 0.5 mg/l NAA, 0.05 mg/l kinetin) which is cultured in 500 ml narrow neck Erlenmeyer flasks, of which the opening is covered with double layer of aluminium foil and loosely covered with Saran wrap and which are placed on a GYROTORY® Shaker (New Brunswick Scientific). The cell suspension culture was grown under continuous light conditions (24 hrs a day); Philips lamps were used with the specification TLD HF 50W/840; light level is in average 1300 Lux and the cell suspension culture is rotated at 120 rpm at a temperature varying between 23-25° C. To arrest cells reversibly in late G1/early S-phase, cells were blocked with aphidicolin according to Nagata et al. 1992 (with slight modifications), 40 ml of an early stationary phase cell suspension culture was subcultured into 200 ml MSS-medium, 4.16 μg/ml aphidicolin was added to block cells at the end of G1/early S-phase, and the culture was incubated at 23° C., 120 rpm in the conditions as described above for MM1, for a period of 21.5 hrs. To remove aphidicolin, cells were washed through a nylon mesh (mesh size 47 μm) with 11 MSS-medium by vigorously shaking and resuspended in MSS-medium. The cells were vigorously shaken, for a washing time of about 14 min, and then centrifuged at 150Orpm for 1 min (387 rcf) with the brake switched off.\nThe level of synchronicity of the Arabidopsis cell suspension culture MM1 was analysed by flow cytometry. The cell pellet from 5 ml of cell suspension culture was frozen in liquid nitrogen. To analyse the DNA content, the High Resolution Kit for Plant ploidy analysis (Type P) (Partec, Cat. No. 06-5-4004) was used, containing solution A (to release cell nuclei) and solution B (to stain DNA with DAPI). A sample of the frozen cell pellet was transferred into a small petri-dish (5 cm diameter), 150 μl of solution A was added, and the sample was carefully chopped with vertical motion of a sharp razor blade. An additional 150 μl of solution A was added, the cell suspension pipetted up and down for several time before leaving for approximately 2 min at RT. The released cell nuclei were filtered through a 50 μm nylon mesh (Partec, CellTrics 50 μm, Cat. No. 06-4-2317) and 1 ml of solution B was added to the filtrate. On average 8200 particles were counted with a flow cytometer (PASIII; Partec GmbH, Germany), using HBO lamp excitation (Partec, mercury lamp HBO 100 long life, 100W) and detection of emission using a blue filter. Cell cycle phases were analysed using Multicycle for Windows (Phoenix Flow Systems, San Diego, Calif.). Flow cytometry results are not corrected for the mitotic cells (which are not measured by this method)."}
{"compound": "C[C@@]1(CO)[C@H](O)CC[C@@]2(C)[C@H]1CC[C@H]1C[C@@H]3C[C@@]12CC[C@]3(O)CO", "note": "[aphidicolin]", "values": [{"measurement": "G1 (%) MM1", "setting": "0 h after aphidicolin removal", "value": 50.6, "unit": "%"}, {"measurement": "G2 (%) MM1", "setting": "0 h after aphidicolin removal", "value": 19.3, "unit": "%"}, {"measurement": "S (%) MM1", "setting": "0 h after aphidicolin removal", "value": 30.1, "unit": "%"}, {"measurement": "G1 (%) MM1", "setting": "1 h after aphidicolin removal", "value": 23.7, "unit": "%"}, {"measurement": "G2 (%) MM1", "setting": "1 h after aphidicolin removal", "value": 11.4, "unit": "%"}, {"measurement": "S (%) MM1", "setting": "1 h after aphidicolin removal", "value": 64.9, "unit": "%"}, {"measurement": "G1 (%) MM1", "setting": "2 h after aphidicolin removal", "value": 23.8, "unit": "%"}, {"measurement": "G2 (%) MM1", "setting": "2 h after aphidicolin removal", "value": 11.4, "unit": "%"}, {"measurement": "S (%) MM1", "setting": "2 h after aphidicolin removal", "value": 64.8, "unit": "%"}, {"measurement": "G1 (%) MM1", "setting": "3 h after aphidicolin removal", "value": 27.2, "unit": "%"}, {"measurement": "G2 (%) MM1", "setting": "3 h after aphidicolin removal", "value": 10.4, "unit": "%"}, {"measurement": "S (%) MM1", "setting": "3 h after aphidicolin removal", "value": 62.5, "unit": "%"}, {"measurement": "G1 (%) MM1", "setting": "4 h after aphidicolin removal", "value": 23.2, "unit": "%"}, {"measurement": "G2 (%) MM1", "setting": "4 h after aphidicolin removal", "value": 44.8, "unit": "%"}, {"measurement": "S (%) MM1", "setting": "4 h after aphidicolin removal", "value": 32, "unit": "%"}, {"measurement": "G1 (%) MM1", "setting": "5 h after aphidicolin removal", "value": 19.9, "unit": "%"}, {"measurement": "G2 (%) MM1", "setting": "5 h after aphidicolin removal", "value": 63.8, "unit": "%"}, {"measurement": "S (%) MM1", "setting": "5 h after aphidicolin removal", "value": 16.3, "unit": "%"}, {"measurement": "G1 (%) MM1", "setting": "6 h after aphidicolin removal", "value": 16.1, "unit": "%"}, {"measurement": "G2 (%) MM1", "setting": "6 h after aphidicolin removal", "value": 83.9, "unit": "%"}, {"measurement": "S (%) MM1", "setting": "6 h after aphidicolin removal", "value": 0, "unit": "%"}, {"measurement": "G1 (%) MM1", "setting": "7 h after aphidicolin removal", "value": 13.8, "unit": "%"}, {"measurement": "G2 (%) MM1", "setting": "7 h after aphidicolin removal", "value": 85.7, "unit": "%"}, {"measurement": "S (%) MM1", "setting": "7 h after aphidicolin removal", "value": 0.5, "unit": "%"}, {"measurement": "G1 (%) MM1", "setting": "8 h after aphidicolin removal", "value": 10.9, "unit": "%"}, {"measurement": "G2 (%) MM1", "setting": "8 h after aphidicolin removal", "value": 88.8, "unit": "%"}, {"measurement": "S (%) MM1", "setting": "8 h after aphidicolin removal", "value": 0.3, "unit": "%"}, {"measurement": "G1 (%) MM1", "setting": "9 h after aphidicolin removal", "value": 11.1, "unit": "%"}, {"measurement": "G2 (%) MM1", "setting": "9 h after aphidicolin removal", "value": 88.9, "unit": "%"}, {"measurement": "S (%) MM1", "setting": "9 h after aphidicolin removal", "value": 0, "unit": "%"}, {"measurement": "G1 (%) MM1", "setting": "10 h after aphidicolin removal", "value": 10.8, "unit": "%"}, {"measurement": "G2 (%) MM1", "setting": "10 h after aphidicolin removal", "value": 89.2, "unit": "%"}, {"measurement": "S (%) MM1", "setting": "10 h after aphidicolin removal", "value": 0, "unit": "%"}, {"measurement": "G1 (%) MM1", "setting": "11 h after aphidicolin removal", "value": 13.4, "unit": "%"}, {"measurement": "G2 (%) MM1", "setting": "11 h after aphidicolin removal", "value": 86.6, "unit": "%"}, {"measurement": "S (%) MM1", "setting": "11 h after aphidicolin removal", "value": 0, "unit": "%"}, {"measurement": "G1 (%) MM1", "setting": "12 h after aphidicolin removal", "value": 15.1, "unit": "%"}, {"measurement": "G2 (%) MM1", "setting": "12 h after aphidicolin removal", "value": 84.1, "unit": "%"}, {"measurement": "S (%) MM1", "setting": "12 h after aphidicolin removal", "value": 0.8, "unit": "%"}, {"measurement": "G1 (%) MM1", "setting": "13 h after aphidicolin removal", "value": 22.9, "unit": "%"}, {"measurement": "G2 (%) MM1", "setting": "13 h after aphidicolin removal", "value": 77.1, "unit": "%"}, {"measurement": "S (%) MM1", "setting": "13 h after aphidicolin removal", "value": 0, "unit": "%"}, {"measurement": "G1 (%) MM1", "setting": "14 h after aphidicolin removal", "value": 31.5, "unit": "%"}, {"measurement": "G2 (%) MM1", "setting": "14 h after aphidicolin removal", "value": 68.5, "unit": "%"}, {"measurement": "S (%) MM1", "setting": "14 h after aphidicolin removal", "value": 0, "unit": "%"}, {"measurement": "G1 (%) MM1", "setting": "15 h after aphidicolin removal", "value": 38.6, "unit": "%"}, {"measurement": "G2 (%) MM1", "setting": "15 h after aphidicolin removal", "value": 61.3, "unit": "%"}, {"measurement": "S (%) MM1", "setting": "15 h after aphidicolin removal", "value": 0.2, "unit": "%"}, {"measurement": "G1 (%) MM1", "setting": "16 h after aphidicolin removal", "value": 33.4, "unit": "%"}, {"measurement": "G2 (%) MM1", "setting": "16 h after aphidicolin removal", "value": 59.6, "unit": "%"}, {"measurement": "S (%) MM1", "setting": "16 h after aphidicolin removal", "value": 6.9, "unit": "%"}, {"measurement": "G1 (%) MM1", "setting": "17 h after aphidicolin removal", "value": 36.3, "unit": "%"}, {"measurement": "G2 (%) MM1", "setting": "17 h after aphidicolin removal", "value": 57.5, "unit": "%"}, {"measurement": "S (%) MM1", "setting": "17 h after aphidicolin removal", "value": 6.2, "unit": "%"}, {"measurement": "G1 (%) MM1", "setting": "18 h after aphidicolin removal", "value": 35.7, "unit": "%"}, {"measurement": "G2 (%) MM1", "setting": "18 h after aphidicolin removal", "value": 56.1, "unit": "%"}, {"measurement": "S (%) MM1", "setting": "18 h after aphidicolin removal", "value": 8.2, "unit": "%"}, {"measurement": "G1 (%) MM1", "setting": "19 h after aphidicolin removal", "value": 38.4, "unit": "%"}, {"measurement": "G2 (%) MM1", "setting": "19 h after aphidicolin removal", "value": 55.6, "unit": "%"}, {"measurement": "S (%) MM1", "setting": "19 h after aphidicolin removal", "value": 6, "unit": "%"}, {"measurement": "G1 (%) MM1", "setting": "20 h after aphidicolin removal", "value": 41.1, "unit": "%"}, {"measurement": "G2 (%) MM1", "setting": "20 h after aphidicolin removal", "value": 48.8, "unit": "%"}, {"measurement": "S (%) MM1", "setting": "20 h after aphidicolin removal", "value": 10, "unit": "%"}]}
